Measured values reported in patent publication US4432732A, “Method for predicting properties of a chemical compound” (priority 1982, dated 1984).
Entries after “also recorded” stand apart in the source; their conditions may differ. Where a SMILES comes first, the peptide text is derived from it. [ ]: non-standard residue; d: D form. The star is where a group is joined. ξ: configuration not given here. ξS = NC(CO)C(=O)O; OiPr = CC(C)O*

Legend:
[1] = cited from earlier work; for taste in words: bitter or sweet taste; for sweetness, times sweeter than sucrose: taste of sucrose is 1
small animals = conditions: intravenous dose; cited from earlier work
[2] = acute toxicity, LD50 (intravenous dose, small animals); conditions: in vivo, LD50 (mg/kg) divided by molecular weight, multiplied by 100
Procedure: Conventionally, the degree of toxicity of a compound has been known only after actual dose. LD50 data for small animals (intravenous dose) contained in the Merck Index (9th edition) were thoroughly taken to use as a learning set, which amounts to more than 300 compounds. The predictability of this chart was tested with 82 other compounds.
Toxicity scale used for this study. Unit of ordinary LD50 values are mg/kg, where mg is the quantity of substance dosed for 50% lethality and kg is the weight of the test animal.
To standardize this value on the millimore base, the LD50 values is divided by the molecular weight. In FIG. 1, the quantity is further multiplied by 100 to avoid unfamiliarly small digits.

Row | Structure (SMILES) | taste in words [1] | further results
1 | N[C@@H](CC(=O)O)C(=O)N[C@@H](Cc1ccccc1)C(=O)O [(II)] (H-Asp-Phe-OH) | bitter taste is observed | –
2 | N[C@@H](CC(=O)O)C(=O)N[C@@H](Cc1ccc(O)cc1)C(=O)O [(III)] (H-Asp-Tyr-OH) | bitter taste is observed | –
3 | CNC(=O)[C@H](Cc1ccc(O)cc1)NC(=O)[C@@H](N)CC(=O)O [(IV)] (H-Asp-Tyr-NHMe) | bitter taste is observed | –
4 | COC(=O)[C@H](Cc1ccccc1)NC(=O)[C@@H](N)CCC(=O)O [(V)] | bitter taste is observed | –
5 | N[C@@H](CCC(=O)O)C(=O)N[C@@H](Cc1ccccc1)C(=O)O [(VI)] | bitter taste is observed | –
6 | CC(C)OC(=O)C(CO)NC(=O)[C@@H](N)CC(=O)O (stereo partly shown) [(VII)] (H-Asp-[ξS]-OiPr) | sweet peptides | sweetness, times sweeter than sucrose [1]: ~120 times
7 | COc1cc(C(=O)OCCCN2CCCN(CCCOC(=O)c3cc(OC)c(OC)c(OC)c3)CC2)cc(OC)c1OC [Compound II] | – | observed LD50 (small animals): 26.6 mg/kg; LD50 [2]: 328 µmol/kg
8 | CC(=O)Nc1c(I)c(NC(C)=O)c(I)c(C(=O)O)c1I [Compound I] | – | observed LD50 (small animals): 14700 mg/kg; LD50 [2]: 22900 µmol/kg
9 | COC(=O)[C@H](Cc1ccccc1)NC(=O)[C@@H](N)CC(=O)O [aspartame, reference compound] (H-Asp-Phe-OMe) | strong sweetness; also recorded: lacking bitter taste | sweetness, times sweeter than sucrose [1]: about 150 times
10 | O=S(=O)(O)NC1CCCCC1 [cyclamic acid, reference compound] | lacking bitter taste | –
11 | O=C1NS(=O)(=O)c2ccccc21 [saccharine, reference compound] | slight bitterness | –
12 | OC[C@H]1O[C@@](CO)(O[C@H]2O[C@H](CO)[C@@H](O)[C@H](O)[C@H]2O)[C@@H](O)[C@@H]1O [sucrose, reference compound] | lacking bitter taste | –
